Laboratory results: US20260232812A1, “BIFUNCTIONAL MOLECULES FOR TARGETED PROTEIN DEGRADATION” (Amphista Therapeutics Limited, priority 2022, published 2026)

Each molecule was assayed against T1, BRD4 (Homo sapiens, UniProt O60885) (assay: Assay 1 - Degradation of HiBit-BRD4 in HEK293). Conditions: HiBit-BRD4 in HEK293, 6 h treatment.
T1 construct: HEK293 containing a HiBit insertion for BRD4; endogenous in cells; host or cells: HEK293 with a HiBiT insertion for BRD4
Assay type: cell-based
Description: 1.1 Assay 1-Degradation of HiBit-BRD4 in HEK293
HEK293 containing a HiBit insertion for BRD4 were plated in 384-well tissue culture plates at a density of 8×10^4 per well in a volume of 36 μL and incubated overnight at 37° C. and 5% CO2. Wells were treated with test compounds for 6 h prior to addition of the NanoLuc substrate and reading on a […]. Degradation data was plotted and analysed using […] (Graphpad).
A DC50 of 25 to 200 nM and a Dmax of no less than 70% were found for `CC(=O)N1c2ccc(-c3ccc(C(=O)NCCOCCOCCOCCOCCOCCNC(=O)C4CC(C5CCCCC5)CN(C(=O)/C(C#N)=C/c5ccn(C)n5)C4)cc3)cc2[C@H](Nc2ccc(Cl)cc2)C[C@@H]1C` (some centres unmarked) [Example 13r] in this work.
A DC50 of 25 to 200 nM and a Dmax of no less than 70% were found for `CC(=O)N1c2ccc(-c3ccc(C(=O)NCCOCCOCCOCCOCCOCCNC(=O)C4CC(C5CCCCC5)CN(C(=O)/C(C#N)=C/c5ccc(F)cc5)C4)cc3)cc2[C@H](Nc2ccc(Cl)cc2)C[C@@H]1C` (some centres unmarked) [Example 13s] in this work.
A DC50 of 25 to 200 nM and a Dmax of no less than 70% were found for `CC(=O)N1c2ccc(-c3ccc(C(=O)NCCOCCOCCOCCOCCOCCNC(=O)C4CC(C5CCCCC5)CN(C(=O)/C(C#N)=C/C(C)(C)CN5CCOCC5)C4)cc3)cc2[C@H](Nc2ccc(Cl)cc2)C[C@@H]1C` (some centres unmarked) [Example 13t] in this work.
A DC50 of less than 25 nM and a Dmax of no less than 70% were found for `CC(=O)N1c2ccc(-c3ccc(C(=O)NCCOCCOCCOCCOCCOCCNC(=O)C4CC(C5CC5)CN(C(=O)/C(C#N)=C/c5nccs5)C4)cc3)cc2[C@H](Nc2ccc(Cl)cc2)C[C@@H]1C` (some centres unmarked) [Example 13u] in this work.
A DC50 of 25 to 200 nM and a Dmax of no less than 70% were found for `CC(=O)N1c2ccc(-c3ccc(C(=O)NCCOCCOCCOCCOCCOCCNC(=O)C4CC(C5CC5)CN(C(=O)/C(C#N)=C/C(C)(C)C)C4)cc3)cc2[C@H](Nc2ccc(Cl)cc2)C[C@@H]1C` (some centres unmarked) [Example 13v] in this work.
A DC50 of 25 to 200 nM and a Dmax of no less than 70% were found for `CC(=O)N1c2ccc(-c3ccc(C(=O)NCCOCCOCCOCCOCCOCCNC(=O)C4CC(C5CC5)CN(C(=O)/C(C#N)=C/c5ccc(F)cc5)C4)cc3)cc2[C@H](Nc2ccc(Cl)cc2)C[C@@H]1C` (some centres unmarked) [Example 13x] in this work.
A DC50 of less than 25 nM and a Dmax of no less than 70% were found for `CC(=O)N1c2ccc(-c3ccc(C(=O)NCCOCCOCCOCCOCCOCCNC(=O)C4CC(c5ccccc5)CN(C(=O)/C(C#N)=C/c5nccs5)C4)cc3)cc2[C@H](Nc2ccc(Cl)cc2)C[C@@H]1C` (some centres unmarked) [Example 13z] in this work.
A DC50 of 25 to 200 nM and a Dmax of no less than 70% were found for `CC(=O)N1c2ccc(-c3ccc(C(=O)NCCOCCOCCOCCOCCOCCNC(=O)CN4CCC(C5CCCN5C(=O)/C(C#N)=C/c5cscn5)CC4)cc3)cc2[C@H](Nc2ccc(Cl)cc2)C[C@@H]1C` (some centres unmarked) [Example 14a] in this work.
A DC50 of 25 to 200 nM and a Dmax of no less than 70% were found for `COc1ccc([C@@H]2CN(C(=O)/C(C#N)=C/C(C)(C)C)C[C@H]2C(=O)NCCOCCOCCOCCOCCOCCNC(=O)c2ccc(-c3ccc4c(c3)[C@H](Nc3ccc(Cl)cc3)C[C@H](C)N4C(C)=O)cc2)cc1` [Example 15aa] in this work.
A DC50 of 25 to 200 nM and a Dmax of 50 to 70% were found for `COc1ccc([C@@H]2CN(C(=O)/C(C#N)=C/c3ccn(C)n3)C[C@H]2C(=O)NCCOCCOCCOCCOCCOCCNC(=O)c2ccc(-c3ccc4c(c3)[C@H](Nc3ccc(Cl)cc3)C[C@H](C)N4C(C)=O)cc2)cc1` [Example 15ab] in this work.
A DC50 greater than 200 nM and a Dmax of less than 50% were found for `COc1ccc([C@@H]2CN(C(=O)/C(C#N)=C/c3ccc(F)cc3)C[C@H]2C(=O)NCCOCCOCCOCCOCCOCCNC(=O)c2ccc(-c3ccc4c(c3)[C@H](Nc3ccc(Cl)cc3)C[C@H](C)N4C(C)=O)cc2)cc1` [Example 15ac] in this work.
A DC50 of 25 to 200 nM and a Dmax of no less than 70% were found for `CC(=O)N1c2ccc(-c3ccc(C(=O)NCCOCCOCCOCCOCCOCCNC(=O)[C@@H]4CN(C(=O)/C(C#N)=C/c5nccs5)C[C@H]4c4ccc(F)cc4)cc3)cc2[C@H](Nc2ccc(Cl)cc2)C[C@@H]1C` [Example 15ae] in this work.
A DC50 of 25 to 200 nM and a Dmax of no less than 70% were found for `CC(=O)N1c2ccc(-c3ccc(C(=O)NCCOCCOCCOCCOCCOCCNC(=O)[C@@H]4CN(C(=O)/C(C#N)=C/C(C)(C)C)C[C@H]4c4ccc(F)cc4)cc3)cc2[C@H](Nc2ccc(Cl)cc2)C[C@@H]1C` [Example 15af] in this work.
A DC50 of 25 to 200 nM and a Dmax of 30 to 50% were found for `CC(=O)N1c2ccc(-c3ccc(C(=O)NCCOCCOCCOCCOCCOCCNC(=O)[C@@H]4CN(C(=O)/C(C#N)=C/c5ccn(C)n5)C[C@H]4c4ccc(F)cc4)cc3)cc2[C@H](Nc2ccc(Cl)cc2)C[C@@H]1C` [Example 15ag] in this work.
A DC50 greater than 200 nM and a Dmax of 30 to 50% were found for `CC(=O)N1c2ccc(-c3ccc(C(=O)NCCOCCOCCOCCOCCOCCNC(=O)[C@@H]4CN(C(=O)/C(C#N)=C/c5ccc(F)cc5)C[C@H]4c4ccc(F)cc4)cc3)cc2[C@H](Nc2ccc(Cl)cc2)C[C@@H]1C` [Example 15ah] in this work.
A DC50 of 25 to 200 nM and a Dmax of 30 to 50% were found for `CC(=O)N1c2ccc(-c3ccc(C(=O)NCCOCCOCCOCCOCCOCCNC(=O)[C@@H]4CN(C(=O)/C(C#N)=C/C(C)(C)CN5CCOCC5)C[C@H]4c4ccc(F)cc4)cc3)cc2[C@H](Nc2ccc(Cl)cc2)C[C@@H]1C` [Example 15ai] in this work.
A DC50 of 25 to 200 nM and a Dmax of 50 to 70% were found for `CC(=O)N1c2ccc(-c3ccc(C(=O)NCCOCCOCCOCCOCCOCCNC(=O)[C@@H]4CN(C(=O)/C(C#N)=C/c5nccs5)C[C@H]4c4cccc(C)c4)cc3)cc2[C@H](Nc2ccc(Cl)cc2)C[C@@H]1C` [Example 15aj] in this work.
A DC50 of 25 to 200 nM and a Dmax of no less than 70% were found for `CC(=O)N1c2ccc(-c3ccc(C(=O)NCCOCCOCCOCCOCCOCCNC(=O)[C@@H]4CN(C(=O)/C(C#N)=C/C(C)(C)C)C[C@H]4c4cccc(C)c4)cc3)cc2[C@H](Nc2ccc(Cl)cc2)C[C@@H]1C` [Example 15ak, N-(1-(4-((2S,4R)-1-acetyl-4-((4-chlorophenyl)amino)-2-methyl-1,2,3,4-tetrahydroquinolin-6-yl)phenyl)-1-oxo-5,8,11,14,17-pentaoxa-2-azanonadecan-19-yl)-1-((E)-2-cyano-4,4-dimethylpent-2-enoyl)-4-(m-tolyl)pyrrolidine-3-carboxamide] in this work.
A DC50 greater than 200 nM and a Dmax of no less than 70% were found for `CC(=O)N1c2ccc(-c3ccc(C(=O)NCCOCCOCCOCCOCCOCCNC(=O)[C@@H]4CN(C(=O)/C(C#N)=C/c5ccn(C)n5)C[C@H]4c4cccc(C)c4)cc3)cc2[C@H](Nc2ccc(Cl)cc2)C[C@@H]1C` [Example 15al] in this work.
A DC50 of 25 to 200 nM and a Dmax of 30 to 50% were found for `CC(=O)N1c2ccc(-c3ccc(C(=O)NCCOCCOCCOCCOCCOCCNC(=O)[C@@H]4CN(C(=O)/C(C#N)=C/C(C)(C)CN5CCOCC5)C[C@H]4c4cccc(C)c4)cc3)cc2[C@H](Nc2ccc(Cl)cc2)C[C@@H]1C` [Example 15an] in this work.
A DC50 of 25 to 200 nM and a Dmax of no less than 70% were found for `CC(=O)N1c2ccc(-c3ccc(C(=O)NCCOCCOCCOCCOCCOCCNC(=O)[C@@H]4CN(C(=O)/C(C#N)=C/C(C)(C)C)C[C@H]4C)cc3)cc2[C@H](Nc2ccc(Cl)cc2)C[C@@H]1C` [Example 15b] in this work.
A DC50 greater than 200 nM and a Dmax of 30 to 50% were found for `CC(=O)N1c2ccc(-c3ccc(C(=O)NCCOCCOCCOCCOCCOCCNC(=O)[C@@H]4CN(C(=O)/C(C#N)=C/c5nccs5)C[C@H]4C(C)C)cc3)cc2[C@H](Nc2ccc(Cl)cc2)C[C@@H]1C` [Example 15f] in this work.
A DC50 of 25 to 200 nM and a Dmax of no less than 70% were found for `CC(=O)N1c2ccc(-c3ccc(C(=O)NCCOCCOCCOCCOCCOCCNC(=O)[C@@H]4CN(C(=O)/C(C#N)=C/C(C)(C)C)C[C@H]4C(C)C)cc3)cc2[C@H](Nc2ccc(Cl)cc2)C[C@@H]1C` [Example 15g] in this work.
A DC50 of 25 to 200 nM and a Dmax of 50 to 70% were found for `CC(=O)N1c2ccc(-c3ccc(C(=O)NCCOCCOCCOCCOCCOCCNC(=O)[C@@H]4CN(C(=O)/C(C#N)=C/c5ccn(C)n5)C[C@H]4C(C)C)cc3)cc2[C@H](Nc2ccc(Cl)cc2)C[C@@H]1C` [Example 15h] in this work.
A DC50 greater than 200 nM and a Dmax of 50 to 70% were found for `CC(=O)N1c2ccc(-c3ccc(C(=O)NCCOCCOCCOCCOCCOCCNC(=O)[C@@H]4CN(C(=O)/C(C#N)=C/c5ccc(F)cc5)C[C@H]4C(C)C)cc3)cc2[C@H](Nc2ccc(Cl)cc2)C[C@@H]1C` [Example 15i] in this work.
A DC50 of 25 to 200 nM and a Dmax of no less than 70% were found for `CC(=O)N1c2ccc(-c3ccc(C(=O)NCCOCCOCCOCCOCCOCCNC(=O)[C@@H]4CN(C(=O)/C(C#N)=C/c5nccs5)C[C@H]4CC(C)C)cc3)cc2[C@H](Nc2ccc(Cl)cc2)C[C@@H]1C` [Example 15k] in this work.
A DC50 of 25 to 200 nM and a Dmax of no less than 70% were found for `CC(=O)N1c2ccc(-c3ccc(C(=O)NCCOCCOCCOCCOCCOCCNC(=O)[C@@H]4CN(C(=O)/C(C#N)=C/C(C)(C)C)C[C@H]4CC(C)C)cc3)cc2[C@H](Nc2ccc(Cl)cc2)C[C@@H]1C` [Example 15l] in this work.
A DC50 of 25 to 200 nM and a Dmax of 50 to 70% were found for `CC(=O)N1c2ccc(-c3ccc(C(=O)NCCOCCOCCOCCOCCOCCNC(=O)[C@@H]4CN(C(=O)/C(C#N)=C/c5ccn(C)n5)C[C@H]4CC(C)C)cc3)cc2[C@H](Nc2ccc(Cl)cc2)C[C@@H]1C` [Example 15m] in this work.
A DC50 of 25 to 200 nM and a Dmax of 50 to 70% were found for `CC(=O)N1c2ccc(-c3ccc(C(=O)NCCOCCOCCOCCOCCOCCNC(=O)[C@@H]4CN(C(=O)/C(C#N)=C/C(C)(C)CN5CCOCC5)C[C@H]4CC(C)C)cc3)cc2[C@H](Nc2ccc(Cl)cc2)C[C@@H]1C` [Example 15o] in this work.
A DC50 of 25 to 200 nM and a Dmax of no less than 70% were found for `CC(=O)N1c2ccc(-c3ccc(C(=O)NCCOCCOCCOCCOCCOCCNC(=O)[C@@H]4CN(C(=O)/C(C#N)=C/c5nccs5)C[C@H]4C4CCCCC4)cc3)cc2[C@H](Nc2ccc(Cl)cc2)C[C@@H]1C` [Example 15p] in this work.
A DC50 of 25 to 200 nM and a Dmax of no less than 70% were found for `CC(=O)N1c2ccc(-c3ccc(C(=O)NCCOCCOCCOCCOCCOCCNC(=O)[C@@H]4CN(C(=O)/C(C#N)=C/C(C)(C)C)C[C@H]4C4CCCCC4)cc3)cc2[C@H](Nc2ccc(Cl)cc2)C[C@@H]1C` [Example 15q] in this work.
A DC50 greater than 200 nM and a Dmax of 50 to 70% were found for `CC(=O)N1c2ccc(-c3ccc(C(=O)NCCOCCOCCOCCOCCOCCNC(=O)[C@@H]4CN(C(=O)/C(C#N)=C/c5ccn(C)n5)C[C@H]4C4CCCCC4)cc3)cc2[C@H](Nc2ccc(Cl)cc2)C[C@@H]1C` [Example 15r] in this work.
A DC50 of 25 to 200 nM and a Dmax of 50 to 70% were found for `CC(=O)N1c2ccc(-c3ccc(C(=O)NCCOCCOCCOCCOCCOCCNC(=O)[C@@H]4CN(C(=O)/C(C#N)=C/c5ccc(F)cc5)C[C@H]4C4CCCCC4)cc3)cc2[C@H](Nc2ccc(Cl)cc2)C[C@@H]1C` [Example 15s] in this work.
A DC50 of 25 to 200 nM and a Dmax of no less than 70% were found for `CC(=O)N1c2ccc(-c3ccc(C(=O)NCCOCCOCCOCCOCCOCCNC(=O)[C@@H]4CN(C(=O)/C(C#N)=C/C(C)(C)CN5CCOCC5)C[C@H]4C4CCCCC4)cc3)cc2[C@H](Nc2ccc(Cl)cc2)C[C@@H]1C` [Example 15t] in this work.
